Type in all cases: functional, cell-based
Data set [1] addresses T1, Solute carrier family 22 member 2 (Rattus norvegicus, UniProt Q9R0W2).
T1 sequence (Q9R0W2 whole entry): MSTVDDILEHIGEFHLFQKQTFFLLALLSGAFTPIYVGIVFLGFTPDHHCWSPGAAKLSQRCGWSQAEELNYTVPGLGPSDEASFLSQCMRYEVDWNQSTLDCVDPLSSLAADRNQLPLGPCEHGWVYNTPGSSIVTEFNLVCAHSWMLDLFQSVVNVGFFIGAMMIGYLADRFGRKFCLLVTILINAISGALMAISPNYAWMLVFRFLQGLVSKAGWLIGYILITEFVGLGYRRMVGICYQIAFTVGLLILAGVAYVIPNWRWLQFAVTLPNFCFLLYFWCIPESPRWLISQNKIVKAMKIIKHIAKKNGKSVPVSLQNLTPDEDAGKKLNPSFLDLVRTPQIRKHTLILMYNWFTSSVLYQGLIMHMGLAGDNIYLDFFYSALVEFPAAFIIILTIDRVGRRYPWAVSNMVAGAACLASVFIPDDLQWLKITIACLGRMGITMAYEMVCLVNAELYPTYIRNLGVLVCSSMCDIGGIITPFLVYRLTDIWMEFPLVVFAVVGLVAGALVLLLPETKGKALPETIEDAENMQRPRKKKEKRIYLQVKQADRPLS
Put plainly: TP_TRANSPORTER: inhibition of TEA uptake (apical to cell)(TEA: 100 uM, Quinine: 200 uM) in OCT2-expressing MDCK cells. The note with it: dog.

Data set [2] addresses T1, Solute carrier family 22 member 2. In words: TP_TRANSPORTER: TEA uptake (TEA: 200 uM, Quinine: 200 uM) in Xenopus laevis oocytes. To be noted: oocyte.
Data set [3] shares this target. Put plainly: TP_TRANSPORTER: inhibition of TEA uptake (apical to cell)(TEA: 100 uM, Quinacrine: 200 uM) in OCT2-expressing MDCK cells. The note with it: dog.
Data set [4] shares this target. Put plainly: TP_TRANSPORTER: TEA uptake (TEA: 200 uM, Quinacrine: 200 uM) in Xenopus laevis oocytes. To be noted: oocyte.
Data set [5] has the same target. Put plainly: TP_TRANSPORTER: inhibition of TEA uptake (apical to cell)(TEA: 100 uM, NMN: 5000 uM) in OCT2-expressing MDCK cells. To be noted: dog.

Turning to `C=C[C@H]1C[N@@]2CC[C@H]1C[C@H]2[C@H](O)c1ccnc2ccc(OC)cc12` [QUININE], the Activity result in data set [1] and in data set [2] was “inhibitor [+]” each time.

In the case of `CCN(CC)CCCC(C)Nc1c2ccc(Cl)cc2nc2ccc(OC)cc12` (stereo not given) [QUINACRINE], the Activity entry in data set [3] and in data set [4] was “inhibitor [+]” throughout.

In the case of `CNC(=O)c1cccnc1` [NICOTINYL METHYLAMIDE], in data set [5], the Activity result was “inhibitor [+]”.

The values are drawn from ChEMBL document CHEMBL2074558, “rOCT2 is a basolateral potential-driven carrier, not an organic cation/proton exchanger” (Am J Physiol, 1999).
